The experiment has as its system L1210 leukemia ip in BDF1 mice, survival T/C. The experiment is described as follows: NCI In Vivo Anticancer Drug Screen. Data for tumor model L1210 Leukemia (intraperitoneal) in B6D2F1 (BDF1) mice. To be noted: endpoint: mean survival time, higher = longer survival. The essentials: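 Tumor was transplanted into mice, which were then dosed with test compound or vehicle alone. Survival was recorded for each group, and the treated figure was expressed relative to the control figure.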

The mark [1] stands for this setting: dose: 100.0 mg/kg/injection, schedule: Q01DX009 (ip), vehicle: Klucel (hydroxypropylcellulose) (HPC).
Where [2] appears, read: dose: 100.0 mg/kg/injection, schedule: Q04DX003 (ip), vehicle: Klucel (hydroxypropylcellulose) (HPC).
Where [3] appears, read: dose: 200.0 mg/kg/injection, schedule: Q01DX009 (ip), vehicle: Klucel (hydroxypropylcellulose) (HPC).
The mark [4] stands for this setting: dose: 200.0 mg/kg/injection, schedule: Q04DX003 (ip), vehicle: Klucel (hydroxypropylcellulose) (HPC).
[5] abbreviates: dose: 400.0 mg/kg/injection, schedule: Q01DX009 (ip), vehicle: Klucel (hydroxypropylcellulose) (HPC).
[6] abbreviates: dose: 400.0 mg/kg/injection, schedule: Q04DX003 (ip), vehicle: Klucel (hydroxypropylcellulose) (HPC).
Where [7] appears, read: dose: 267.0 mg/kg/injection, schedule: Q01DX009 (ip), vehicle: saline.
The mark [8] stands for this setting: dose: 50.0 mg/kg/injection, schedule: Q01DX001 (ip), vehicle: Klucel (hydroxypropylcellulose) (HPC).
[9] abbreviates: dose: 100.0 mg/kg/injection, schedule: Q01DX001 (ip), vehicle: Klucel (hydroxypropylcellulose) (HPC).
Where [10] appears, read: dose: 200.0 mg/kg/injection, schedule: Q01DX001 (ip), vehicle: Klucel (hydroxypropylcellulose) (HPC).
[11] abbreviates: dose: 75.0 mg/kg/injection, schedule: Q01DX001 (ip), vehicle: saline.
[12] abbreviates: dose: 50.0 mg/kg/injection, schedule: Q01DX009 (ip), vehicle: water.
Where [13] appears, read: dose: 100.0 mg/kg/injection, schedule: Q01DX009 (ip), vehicle: water.
Setting [14] is: dose: 200.0 mg/kg/injection, schedule: Q04DX003 (ip), vehicle: water.

“And” between values parts separate entries of the source, which are not always exact repeats. Equal values may be shown once. Inconclusive results and toxic doses are left out.

With `Cc1ccc(CNc2ccc(C)cc2)cc1`, the T/C is, setting by setting: under setting [1], 100 % of control; under setting [2], 98 % of control; under setting [3], 106 % of control; under setting [4], 100 % of control; under setting [5], 99 % of control; under setting [6], 95 % of control.

On to `CN(O)C(N)=O`, for which the T/C was 160 % of control (dose: 25.0 mg/kg/injection, schedule: Q03HX024 (ip), vehicle: saline); 124 % of control (dose: 35.0 mg/kg/injection, schedule: Q01DX009 (ip), vehicle: saline); 124 % of control (dose: 50.0 mg/kg/injection, schedule: Q03HX024 (ip), vehicle: saline); 108 % of control (dose: 75.0 mg/kg/injection, schedule: Q04DX003 (ip), vehicle: saline); 151 % of control (dose: 100.0 mg/kg/injection, schedule: Q01DX009 (ip), vehicle: saline); 108 % of control (dose: 115.0 mg/kg/injection, schedule: Q04DX003 (ip), vehicle: saline). Also, the T/C is 119 % of control (dose: 175.0 mg/kg/injection, schedule: Q04DX003 (ip), vehicle: saline); 152 % of control and 170 % of control (dose: 177.0 mg/kg/injection, schedule: Q01DX009 (ip), vehicle: saline); 158 % of control (dose: 200.0 mg/kg/injection, schedule: Q01DX009 (ip), vehicle: saline); 115 % of control (dose: 265.0 mg/kg/injection, schedule: Q04DX003 (ip), vehicle: saline); 194 % of control (dose: 266.0 mg/kg/injection, schedule: Q01DX009 (ip), vehicle: saline); 151 % of control under setting [7]. For the same molecule, the T/C (dose: 400.0 mg/kg/injection, schedule: Q04DX003 (ip), vehicle: saline) was 166 % of control; the T/C (dose: 500.0 mg/kg/injection, schedule: Q01DX009 (ip), vehicle: saline) was 100 % of control; the T/C (dose: 800.0 mg/kg/injection, schedule: Q01DX009 (ip), vehicle: saline) is 103 % of control; the T/C (dose: 900.0 mg/kg/injection, schedule: Q04DX003 (ip), vehicle: saline) was 115 % of control.

With `Cc1c2c(nn1Cc1ccccc1)C(=O)C=C(Nc1ccccc1)C2=O`, the T/C under setting [8] is 99 % of control; the T/C under setting [9] is 99 % of control and 104 % of control; the T/C under setting [10] was 97 % of control and 111 % of control.

On to `COc1nc(N)c(C(N)=O)cc1C#N`, for which, under “dose: 87.0 mg/kg/injection, schedule: Q04DX003 (ip), vehicle: Klucel (hydroxypropylcellulose) (HPC)”, the T/C is 97 % of control.

As to `O=C(Nc1ccccc1)Nc1ccc([N+](=O)[O-])cc1`, the T/C is 91 % of control under setting [1]; 93 % of control (dose: 100.0 mg/kg/injection, schedule: Q04DX003 (ip), vehicle: other); 96 % of control under setting [3]; 100 % of control (dose: 200.0 mg/kg/injection, schedule: Q04DX003 (ip), vehicle: other); 86 % of control under setting [5]; 100 % of control (dose: 400.0 mg/kg/injection, schedule: Q04DX003 (ip), vehicle: other).

Consider `BrC1CC2CCCCC2CC1Br` (centres undefined), for which the T/C by setting is: (dose: 100.0 mg/kg/injection, schedule: Q01DX001 (ip), vehicle: carboxymethylcellulose (CMC)) 98 % of control; (dose: 200.0 mg/kg/injection, schedule: Q01DX001 (ip), vehicle: carboxymethylcellulose (CMC)) 101 % of control; (dose: 400.0 mg/kg/injection, schedule: Q01DX001 (ip), vehicle: carboxymethylcellulose (CMC)) 101 % of control.

Take `O=S(=O)(Cc1ccccc1)C(Cl)Cl`: the T/C by setting is: under setting [11], 96 % of control; (dose: 150.0 mg/kg/injection, schedule: Q01DX001 (ip), vehicle: saline) 94 % of control; (dose: 300.0 mg/kg/injection, schedule: Q01DX001 (ip), vehicle: saline) 96 % of control.

In the case of `NCCCN1CCCN=C1C1=NCCCN1CCCN`, the T/C is, setting by setting: (dose: 100.0 mg/kg/injection, schedule: Q01DX009 (ip), vehicle: saline with Tween-80) 96 % of control; (dose: 100.0 mg/kg/injection, schedule: Q04DX002 (ip), vehicle: saline) 100 % of control; (dose: 100.0 mg/kg/injection, schedule: Q04DX003 (ip), vehicle: saline with Tween-80) 109 % of control; (dose: 200.0 mg/kg/injection, schedule: Q01DX009 (ip), vehicle: saline with Tween-80) 100 % of control; (dose: 200.0 mg/kg/injection, schedule: Q04DX002 (ip), vehicle: saline) 100 % of control; (dose: 200.0 mg/kg/injection, schedule: Q04DX003 (ip), vehicle: saline with Tween-80) 98 % of control. In addition, the T/C runs as follows: (dose: 400.0 mg/kg/injection, schedule: Q01DX009 (ip), vehicle: saline with Tween-80) 100 % of control; (dose: 400.0 mg/kg/injection, schedule: Q04DX003 (ip), vehicle: saline with Tween-80) 95 % of control.

As to `CC(=O)n1ncc2ccc(N)cc21`, the T/C was 89 % of control (dose: 25.0 mg/kg/injection, schedule: Q01DX009 (ip), vehicle: water); 101 % of control under setting [12]; 96 % of control under setting [13]; 100 % of control (dose: 100.0 mg/kg/injection, schedule: Q04DX003 (ip), vehicle: water); 96 % of control under setting [14].

With `O=[N+]([O-])c1ccc(-c2cnc(Br)c3ccccc23)cc1`, the T/C (dose: 25.0 mg/kg/injection, schedule: Q04DX003 (ip), vehicle: DMSO) was 96 % of control; the T/C (dose: 50.0 mg/kg/injection, schedule: Q04DX003 (ip), vehicle: DMSO) is 93 % of control; the T/C (dose: 100.0 mg/kg/injection, schedule: Q04DX003 (ip), vehicle: DMSO) was 93 % of control; the T/C (dose: 200.0 mg/kg/injection, schedule: Q04DX003 (ip), vehicle: DMSO) was 93 % of control; the T/C (dose: 400.0 mg/kg/injection, schedule: Q04DX003 (ip), vehicle: DMSO) is 93 % of control.

As to `O=C1CN=C(c2ccccn2)c2cc(Cl)ccc2N1`, the T/C runs as follows: under setting [12], 98 % of control; under setting [13], 97 % of control; (dose: 200.0 mg/kg/injection, schedule: Q01DX009 (ip), vehicle: water) 104 % of control; (dose: 200.0 mg/kg/injection, schedule: Q04DX003 (ip), vehicle: none) 99 % of control; under setting [14], 100 % of control; under setting [7], 97 % of control. Further, the T/C reads like this: (dose: 400.0 mg/kg/injection, schedule: Q01DX009 (ip), vehicle: saline) 110 % of control; (dose: 400.0 mg/kg/injection, schedule: Q01DX009 (ip), vehicle: water) 198 % of control; (dose: 400.0 mg/kg/injection, schedule: Q04DX003 (ip), vehicle: none) 101 % of control; (dose: 400.0 mg/kg/injection, schedule: Q04DX003 (ip), vehicle: water) 102 % of control; (dose: 600.0 mg/kg/injection, schedule: Q04DX003 (ip), vehicle: none) 101 % of control; (dose: 600.0 mg/kg/injection, schedule: Q04DX003 (ip), vehicle: water) 102 % of control.

Turning to `COc1cc2c(cc1OC)C1(CCCl)C3CC4C(=CCOC5CC(=O)N2C1C54)CN3C(=O)Cc1ccccc1` (centres undefined), the T/C under setting [11] was 100 % of control.

Regarding `O=C(CNCc1ccccc1)c1ccc(Cl)cc1`, the T/C by setting is: under setting [8], 93 % of control; under setting [9], 96 % of control; under setting [10], 93 % of control; (dose: 400.0 mg/kg/injection, schedule: Q01DX001 (ip), vehicle: Klucel (hydroxypropylcellulose) (HPC)) 93 % of control.

With `Cc1cccc(NC(=O)c2ccc(Cl)c(Cl)c2)c1C`, the T/C under setting [1] was 94 % of control; the T/C under setting [2] was 93 % of control; the T/C under setting [3] was 88 % of control; the T/C under setting [4] was 91 % of control; the T/C under setting [5] was 88 % of control; the T/C under setting [6] was 95 % of control.

Values taken from PubChem BioAssay AID248 (DTP/NCI, 2004).
